Read-outs that look alike come from different tables or passages of the source.
Experiments:
[1] = tested on: clinical isolates of C. albicans resistant to FLC; assay: Checkerboard microdilution assay (CLSI M27-A2), FLC-resistant clinical isolates; format: cell-based, Candida albicans; conditions: for MIC80: Candida albicans, read-out: MIC80 alone; for MIC80 / MIC80 alone: 24 h, 35 °C; for antifungal activity when tested alone: FLC-resistant isolates, drug alone; for MIC80 in combination: FLC combined with Ost
Experimental: (§1) Eleven clinical isolates of FLC-resistant C. albicans were used in this study, and C. albicans ATCC 90028 was used as a quality control. Drugs prepared in dimethyl sulfoxide (DMSO) included osthol (Shanghai Jianglai Biotechnology Co. Ltd, China) and fluconazole (Pfizer-Roerig Pharmaceuticals, New York, NY).
(§2) Assays were performed on all 11 isolates according to methods of the CLSI (formerly NCCLS) (M27-A2). The concentration of fungus suspension in RPMI 1640 medium was 10^3 CFU/ml, and the final concentration ranged from 0.125 to 64 μg/ml for FLC and 1 to 32 μg/ml for OST. Plates were incubated at 35 °C for 24 h. Optical density was measured at 630 nm and background optical densities were subtracted from each well. MIC80 were defined as the minimum inhibition concentration of the drugs that inhibited growth by 80% when compared with drug-free wells. The fractional inhibitory concentration index (FICI) were defined as the sum of the MIC80 of each drug when used in combination divided by the MIC80 of the drug used alone. Synergism and antagonism were defined by FICIs of≤ 0.5 and >4, respectively. An FICI result of > 0.5 but ≤ 4 was considered indifferent.[43]

C. albicans ATCC 90028 = assay: Checkerboard microdilution assay, quality control strain; format: cell-based, Candida albicans; conditions: ATCC90028; for MIC80 in combination: FLC combined with Ost
Experimental: as §1, §2

C. albicans 103 [2] = assay: Agar disk diffusion test; format: cell-based, Candida albicans; conditions: for anti-fungal activity, disk on plain agar: Ost alone
Experimental: C. albicans 103 (FLC-resistant isolate with a MIC80 of 64 μg/ml for […]) was tested by agar diffusion assay.[44] A 100 μl of C. albicans 103 in 10^6 CFU/ml suspension was spread uniformly onto the yeast extract-peptone-dextrose agar plate with or without 64 μg/ml FLC. Then, 6-mm paper disks impregnated with Ost and FLC alone or in combination were placed onto the agar surface. There was 5 μl of DMSO in control disks. Inhibition zones were measured after incubation at 35°C for 48 h. Assays were performed in duplicate.

C. albicans 103 [3] = assay: Survival of immunosuppressed mice systemically infected with C. albicans; format: in vivo, Candida albicans; conditions: immunosuppressed ICR mice, 1 × 10^6 CFU i.v.; oral FLC 0.5 mg/kg/day, Ost 150 mg/kg/day, 4 d treatment
Experimental: Sixty female ICR mice (weighing 20–25 g) were prepared in the antifungal study in vivo. We followed the methods of Junius M et al. and Kenneth et al. with a few modifications.[45,46] Briefly, acute infections in immunosuppressed mice, resulting from a 80 mg/kg/day intravenous dose of cyclophosphamide 3 d before infection, then injected with 1 × 10^6 CFU C. albicans in 0.2 ml of saline intravenously. This inoculum was uniformly lethal for placebo-treated animals within a week. After inoculation, the mice were randomly separated into 6 groups (10 animals per group), including saline control group and medication administration groups (FLC, Ost-S100-NP, Ost-suspensions, Ost-suspensions plus FLC, and Ost-S100-NP plus FLC). The dosages of FLC and Ost are 0.5 mg/kg/day and 150 mg/kg/day by oral administration. Therapy was begun 2 hours post infection and last for 4 d. The survival time was calculated from the day 0 since inoculation to the day of death. Survival data were presented as Kaplan-Merier plots and analyzed with a Log-rank Test (SPSS 18; SPSS, Chicago, Illinois). A value of P < 0.05 was considered to be significant.

Q: `OC(Cn1cncn1)(Cn1cncn1)c1ccc(F)cc1F` [FLC, fluconazole, reference compound] was tested. Which MIC80 ([1]; isolate 32) did it give?
A: 64 µg/mL

Q: And the MIC80 ([1]; isolate 100)?
A: > 64 µg/mL

Q: What about the MIC80 ([1]; isolate 103) of the same compound?
A: > 64 µg/mL

Q: What about the MIC80 ([1]; isolate 557) of the same compound?
A: > 64 µg/mL

Q: What about the MIC80 ([1]; isolate 842) of the same compound?
A: > 64 µg/mL

Q: And the MIC80 ([1]; isolate 901)?
A: > 64 µg/mL

Q: What about the MIC80 ([1]; isolate 904) of the same compound?
A: > 64 µg/mL

Q: And the MIC80 ([1]; isolate 953)?
A: 64 µg/mL

Q: What about the MIC80 ([1]; isolate J5) of the same compound?
A: > 64 µg/mL

Q: And the MIC80 ([1]; isolate J28)?
A: > 64 µg/mL

Q: What about the MIC80 ([1]; isolate J35) of the same compound?
A: 64 µg/mL

Q: What about the “antifungal activity when tested alone” value [1] of the same compound?
A: weak antifungal activity

Q: And the MIC80 in combination ([1]; isolate 32)?
A: 2 µg/mL

Q: What about the MIC80 in combination ([1]; isolate 100) of the same compound?
A: 4 µg/mL

Q: What about the MIC80 in combination ([1]; isolate 103) of the same compound?
A: 4 µg/mL

Q: And the MIC80 in combination ([1]; isolate 557)?
A: 2 µg/mL

Q: And the MIC80 in combination ([1]; isolate 842)?
A: 2 µg/mL

Q: What about the MIC80 in combination ([1]; isolate 901) of the same compound?
A: 2 µg/mL

Q: And the MIC80 in combination ([1]; isolate 904)?
A: 2 µg/mL

Q: And the MIC80 in combination ([1]; isolate 953)?
A: 2 µg/mL

Q: And the MIC80 in combination ([1]; isolate J5)?
A: 2 µg/mL

Q: And the MIC80 in combination ([1]; isolate J28)?
A: 8 µg/mL

Q: What about the MIC80 in combination ([1]; isolate J35) of the same compound?
A: 1 µg/mL

Q: And the MIC80 in combination (C. albicans ATCC 90028)?
A: 0.0625 µg/mL

Q: And the MIC80 (C. albicans ATCC 90028; Candida albicans, 35 °C, 24 h, read-out: MIC80 alone)?
A: 0.25 µg/mL

Q: What about the “inhibition, disk on plain agar” value (C. albicans 103 [2]; FLC alone, 10 μg, 35°C, 48 h) of the same compound?
A: only weak inhibition

Q: What about the average survival day (C. albicans 103 [3]) of the same compound?
A: 8.7 days

Q: With “7-methoxy-8-[3-methylpent-2-enyl] coumarin [Ost]” as the compound, how does the “antifungal activity when tested alone” value [1] read?
A: weak antifungal activity

Q: What about the MIC80 alone ([1]; isolate 32) of the same compound?
A: 64 µg/mL

Q: And the MIC80 in combination ([1]; isolate 32)?
A: 4 µg/mL

Q: What about the MIC80 alone ([1]; isolate 100) of the same compound?
A: 32 µg/mL

Q: What about the MIC80 in combination ([1]; isolate 100) of the same compound?
A: 4 µg/mL

Q: What about the MIC80 alone ([1]; isolate 103) of the same compound?
A: 64 µg/mL

Q: What about the MIC80 in combination ([1]; isolate 103) of the same compound?
A: 4 µg/mL

Q: And the MIC80 alone ([1]; isolate 557)?
A: 64 µg/mL

Q: And the MIC80 in combination ([1]; isolate 557)?
A: 2 µg/mL

Q: What about the MIC80 alone ([1]; isolate 842) of the same compound?
A: 64 µg/mL

Q: And the MIC80 in combination ([1]; isolate 842)?
A: 2 µg/mL

Q: What about the MIC80 alone ([1]; isolate 901) of the same compound?
A: 16 µg/mL

Q: And the MIC80 in combination ([1]; isolate 901)?
A: 4 µg/mL

Q: What about the MIC80 alone ([1]; isolate 904) of the same compound?
A: >64 µg/mL

Q: And the MIC80 in combination ([1]; isolate 904)?
A: 4 µg/mL

Q: And the MIC80 alone ([1]; isolate 953)?
A: 32 µg/mL

Q: What about the MIC80 in combination ([1]; isolate 953) of the same compound?
A: 4 µg/mL

Q: And the MIC80 alone ([1]; isolate J5)?
A: 64 µg/mL

Q: What about the MIC80 in combination ([1]; isolate J5) of the same compound?
A: 8 µg/mL

Q: What about the MIC80 alone ([1]; isolate J28) of the same compound?
A: 64 µg/mL

Q: And the MIC80 in combination ([1]; isolate J28)?
A: 8 µg/mL

Q: What about the MIC80 alone ([1]; isolate J35) of the same compound?
A: 32 µg/mL

Q: What about the MIC80 in combination ([1]; isolate J35) of the same compound?
A: 8 µg/mL

Q: What about the MIC80 alone (C. albicans ATCC 90028; 35 °C, 24 h) of the same compound?
A: 8 µg/mL

Q: And the MIC80 in combination (C. albicans ATCC 90028)?
A: 1 µg/mL

Q: And the “mean diameter of the inhibitory zone” value (C. albicans 103 [2]; 8 μg Ost disk on YEPD plate containing 64 μg/ml FLC)?
A: 8 mm

Q: What about the “mean diameter of the inhibitory zone” value (C. albicans 103 [2]; 16 μg Ost disk on YEPD plate containing 64 μg/ml FLC) of the same compound?
A: 12 mm

Q: What about the “mean diameter of the inhibitory zone” value (C. albicans 103 [2]; 32 μg Ost disk on YEPD plate containing 64 μg/ml FLC) of the same compound?
A: 16 mm

Q: What about the “mean diameter of the inhibitory zone” value (C. albicans 103 [2]; 64 μg Ost disk on YEPD plate containing 64 μg/ml FLC) of the same compound?
A: 21 mm

Q: What about the “anti-fungal activity, disk on plain agar” value (C. albicans 103 [2]; 64 μg, 35°C, 48 h) of the same compound?
A: weak anti-fungal activity

Q: And the “anti-fungal activity, disk on plain agar” value (C. albicans 103 [2]; smaller dosage (below 64 μg), 35°C, 48 h)?
A: no anti-fungal activity
